Experiments:
Test in all cases: relative viability (nuclei count vs DMSO), 5 days (fraction); higher = more cells survive
[1] = compound: CC[C@@H]1C(=O)N(C)c2cnc(Nc3ccc(C(=O)NC4CCN(C)CC4)cc3OC)nc2N1C1CCCC1 [BI-2536] + CCNC(=O)c1noc(-c2cc(C(C)C)c(O)cc2O)c1-c1ccc(CN2CCOCC2)cc1 [Luminespib] (partner 0.01 µM)
Summary of the method: (§1)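 Dosing by pin tool came one day after lung cancer cell lines were seeded in 1536-well plates, using either one drug or a fixed anchor-drug dose plus five library-drug doses (not always all listed) in √10 steps. After 5 days, nuclei were counted on 4× images. Relative viability is treated-well nuclei count divided by vehicle-well nuclei count, and values are medians of duplicate plates.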

[2] = compound: CC[C@@H]1C(=O)N(C)c2cnc(Nc3ccc(C(=O)NC4CCN(C)CC4)cc3OC)nc2N1C1CCCC1 [BI-2536] + COc1cccc2cc(-c3nc([C@H]4CC[C@H](C(=O)O)CC4)n4ncnc(N)c34)[nH]c12 [OSI-027] (partner 0.5 µM)
Summary of the method: as §1

[3] = compound: CC1CC(=O)N(C2=CN=C(N=C2N1C3CCCC3)NC4=C(C=C(C=C4)C(=O)NC5CCN(CC5)C)OC)C [NPK76-II-72-1] + N=C(N)NC(=N)NCCc1ccccc1 [Phenformin] (partner 250 µM)
Summary of the method: as §1

[4] = compound: CC[C@@H]1C(=O)N(C)c2cnc(Nc3ccc(C(=O)NC4CCN(C)CC4)cc3OC)nc2N1C1CCCC1 [BI-2536] + CC(=O)c1c(C)c2cnc(Nc3ccc(N4CCNCC4)cn3)nc2n(C2CCCC2)c1=O [Palbociclib] (partner 0.5 µM)
Summary of the method: as §1

UMC-11
relative viability ([1]; first compound 0.01 µM): 0.925 | relative viability ([1]; first compound 0.03162 µM): 0.725 | relative viability ([1]; first compound 0.1 µM): 0.232 | relative viability ([1]; first compound 0.3162 µM): 0.188 | relative viability ([1]; first compound 1 µM): 0.168 | relative viability ([2]; first compound 0.01 µM): 0.5 | relative viability ([2]; first compound 0.03162 µM): 0.27 | relative viability ([2]; first compound 0.1 µM): 0.138 | relative viability ([2]; first compound 0.3162 µM): 0.192 | relative viability ([2]; first compound 1 µM): 0.158 | relative viability ([3]; first compound 0.01 µM): 0.318 | relative viability ([3]; first compound 0.03162 µM): 0.32 | relative viability ([3]; first compound 0.1 µM): 0.346 | relative viability ([3]; first compound 1 µM): 0.344 | relative viability ([4]; first compound 0.01 µM): 0.295 | relative viability ([4]; first compound 0.03162 µM): 0.295 | relative viability ([4]; first compound 0.1 µM): 0.228 | relative viability ([4]; first compound 0.3162 µM): 0.223 | relative viability ([4]; first compound 1 µM): 0.23
